This note sets out measurements from patent US4579861A, “Aryloxypropanolamine derivatives, pharmaceutical compositions and adrenegic thereof” (Pierrel S.p.A., priority 1983, dated 1986).

Counter-ions that a name gives are not always drawn. Like-named read-outs stand apart in the source and are kept apart here.

One series deals with T1, β1 (guinea pig atria) (Cavia porcellus, UniProt H0W3H1).
T1 construct: The atria and the trachea have been suspended respectively in Ringer oxygenated solution; from tissue; host or cells: isolated atria of Hartley albino guinea pigs
As to the kind of experiment: In vitro β-blocking activity, guinea pig atria stimulated with isopropylnoradrenaline (INA). It counts as cell-based, guinea pig (Hartley albino). To be noted: INA 10^-8 M, 32° C. On the procedure: (§1) Hartley albino guinea pigs of 450 g average weight were used. The atria and the trachea have been suspended respectively in Ringer oxygenated solution at 32° C., and in Krebs carboxygenated solution medicated with pilocarpine, at 37° C.
(§2) After 30' minute stabilization the samples were stimulated with a single submaximal concentration of isopropylnoradrenaline (INA) (10^-8 M for the atria and 10^-7 M for the trachea) in the absence or presence of different antagonist's concentrations.
(§3) The percent inhibitions of the chronotropic and positive inotropic effect (atria) and of relaxation (trachea) were evaluated and the IC50 values were calculated therefrom.

A further series in a line: in vivo. As to conditions: mouse, iv. On the procedure: Charles River male CD1 mice, weighing 25 g were used. The administration volume of the compounds, solubilized in H2 O and exceptionally in dimethylsulfoxide, was 0.02 ml/10 g of body weight.
A further series concerns the target β2 (guinea pig trachea) (Cavia porcellus, UniProt Q8K4Z4). As to the kind of experiment: cell-based. Details: species or system guinea pig (Hartley albino). Here is the method:
as §1, §2, §3

In a further series the test system is β1. Nature of the series: β-blocking activity on conscious rats, i.v. (inhibition of INA positive chronotropic effect). To be noted: 2 rats each compound. It counts as in vivo, rat (male Wistar). An excerpt: The arterial pressure (AP) and heart rate (HR) were graphically recorded on a type R. multichannel Beckman poligraph.
The test system of the next series is β1 receptors. Nature of the series: Inhibition of 3H-DHA (dihydroalprenolol) binding to β1 receptors. To be noted: for cardioselectivity degree compared with reference compounds: 3H-DHA binding, in words; for IC50: read-out: IC50 β1 (inhibition of H^3-DHA binding), [3H]dihydroalprenolol binding, β1.
For the next series, the system named is β2 receptors. Nature of the series: Inhibition of 3H-DHA (dihydroalprenolol) binding to β2 receptors. To be noted: for affinity for the β2 receptors compared with β1 receptors: 3H-DHA binding, in words; for IC50: read-out: IC50 β2 (inhibition of H^3-DHA binding), [3H]dihydroalprenolol binding, β2.
The mark [1] stands for this setting: β-Blocking activity in vitro IC50, Atria chronotropism × 10^-7, guinea pig atria, β1, chronotropic effect.
[2] abbreviates: β-Blocking activity in vitro IC50, Atria inotropism × 10^-7, guinea pig atria, β1, positive inotropic effect.
The mark [3] stands for this setting: guinea pig atria, β1, chronotropic effect, read-out: β-Blocking activity in vitro IC50, Atria chronotropism × 10^-7.
Where [4] appears, read: guinea pig atria, β1, positive inotropic effect, read-out: β-Blocking activity in vitro IC50, Atria inotropism × 10^-7.
The mark [5] stands for this setting: guinea pig trachea, β2, relaxation, INA 10^-7 M, 37° C., pilocarpine, read-out: β-Blocking activity in vitro IC50, Trachea β2 × 10^-7.
The mark [6] stands for this setting: 3 mg/kg i.v. (Ia-c), could be undervalued by reflex tachycardia.
Where [7] appears, read: read-out: β-Blocking activity in vitro IC50, Trachea β2 × 10^-7.
Setting [8] is: 1 mg/kg i.v., could be undervalued by reflex tachycardia.

β2 (guinea pig trachea), sequence (Q8K4Z4 whole entry): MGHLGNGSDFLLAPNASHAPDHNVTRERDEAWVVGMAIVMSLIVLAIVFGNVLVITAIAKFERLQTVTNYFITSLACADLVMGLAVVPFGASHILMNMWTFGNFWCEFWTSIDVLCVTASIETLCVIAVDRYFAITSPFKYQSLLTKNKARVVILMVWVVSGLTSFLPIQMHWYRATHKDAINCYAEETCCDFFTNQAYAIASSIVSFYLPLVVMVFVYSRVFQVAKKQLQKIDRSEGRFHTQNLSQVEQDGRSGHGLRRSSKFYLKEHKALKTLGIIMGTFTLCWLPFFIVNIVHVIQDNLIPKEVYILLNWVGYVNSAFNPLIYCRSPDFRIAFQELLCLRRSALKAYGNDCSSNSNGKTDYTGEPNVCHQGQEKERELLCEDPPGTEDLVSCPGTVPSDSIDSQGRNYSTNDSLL
T1 sequence (H0W3H1 1-470): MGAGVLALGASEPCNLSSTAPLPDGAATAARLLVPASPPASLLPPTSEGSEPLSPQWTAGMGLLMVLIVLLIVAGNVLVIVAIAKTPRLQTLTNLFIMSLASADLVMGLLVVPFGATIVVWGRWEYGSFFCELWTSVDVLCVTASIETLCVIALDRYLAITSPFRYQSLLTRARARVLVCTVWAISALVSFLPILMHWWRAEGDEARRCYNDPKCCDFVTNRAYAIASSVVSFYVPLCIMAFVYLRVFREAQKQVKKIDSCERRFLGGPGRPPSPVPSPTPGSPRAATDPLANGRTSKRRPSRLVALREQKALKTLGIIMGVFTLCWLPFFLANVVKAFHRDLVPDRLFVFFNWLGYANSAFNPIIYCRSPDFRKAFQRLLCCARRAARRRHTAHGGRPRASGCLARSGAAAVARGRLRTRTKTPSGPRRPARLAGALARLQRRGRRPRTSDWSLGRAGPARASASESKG

By IC50 is commonly meant the point on the concentration scale where inhibition reaches its midpoint. For `CC(C)NCC(O)COc1ccc(CC(N)=O)cc1` (stereo not shown) [Atenolol, atenolol, reference compound], the values for the IC50 at β1 (guinea pig atria) (setting [1]) and against β1 (guinea pig atria) (setting [2]) were 1500 nM and 1700 nM, respectively.
As a reminder, the LD50 is the dose expected to kill half of the subjects tested. In the case of `O=C1CN(c2ccccc2)C(=O)N1CCNCC(O)COc1ccccc1` (stereo not shown) [Ia, 1-Phenyl-3-{[2-(3-phenoxy-2-hydroxy)propylamino]ethyl}hydantoin hydrochloride], the LD50 at 168 h in “in vivo” is 96 mg/kg. The figures for the IC50 on β1 (guinea pig atria) (setting [3]), at β1 (guinea pig atria) (setting [4]) and at β2 (guinea pig trachea) (setting [5]) were 140 nM, 430 nM and 6700 nM, respectively. Besides, in the series on β1 (setting [6]), the “Vivo inhib. %, conscious rat i.v., chronotropism β1” value (shortened to “Vivo inhib. %”) came to 59%.
In “in vivo”, `Cc1cccc(OCC(O)CNCCN2C(=O)CN(c3ccccc3)C2=O)c1` (stereo not shown) [Ib] showed an LD50 at 168 h of 69 mg/kg. Besides, the IC50 is 430 nM at β1 (guinea pig atria) (setting [3]), 940 nM at β1 (guinea pig atria) (setting [4]) and 6200 nM on β2 (guinea pig trachea) (setting [5]). Also, the “Vivo inhib. %” value in the series on β1 (setting [6]) was 50%.
Take `N#Cc1ccccc1OC[C@H](O)CNCCN1C(=O)CN(c2ccccc2)C1=O` [Ic(R), (R)-(+)-1-Phenyl-3-{2-[3-(2-cyanophenoxy)-2-hydroxypropyl]aminoethyl}hydantoin hydrochloride]: the IC50 on β1 (guinea pig atria) (setting [3]) is 1400 nM; at β1 (guinea pig atria) (setting [4]), 3400 nM; on β2 (guinea pig trachea) (setting [7]) it was above 100000 nM.
The like results for `N#Cc1ccccc1OC[C@@H](O)CNCCN1C(=O)CN(c2ccccc2)C1=O` [Ic(S), (S)-(-)-1-Phenyl-3-{2-[3-(2-cyanophenoxy)-2-hydroxypropyl]aminoethyl}hydantoin hydrochloride] were, in that order, 29 nM, 60 nM and 600 nM.
In “in vivo”, `N#Cc1ccccc1OCC(O)CNCCN1C(=O)CN(c2ccccc2)C1=O` (stereo not shown) [Ic] displayed an LD50 at 168 h of 99 mg/kg. Besides, the IC50 at β1 (guinea pig atria) (setting [3]) was found to be 120 nM; at β1 (guinea pig atria) (setting [4]), 90 nM; at β2 (guinea pig trachea) (setting [5]), 2000 nM; at β1 receptors, 6.7 nM; at β2 receptors it was 9300 nM. Besides, in the series with β1 (setting [6]), the “Vivo inhib. %” value was 67%. In addition, in the series with β1 receptors, the “cardioselectivity degree compared with reference compounds” value is “remarkably higher cardioselectivity degree than that of the reference compounds”. The “affinity for the β2 receptors compared with β1 receptors” value in the series with β2 receptors was “remarkably lower than the one shown for β1 receptors”.
The compound `O=C1CN(c2ccc(Cl)cc2)C(=O)N1CCNCC(O)COc1ccccc1` (stereo not shown) [Id] gave an LD50 at 168 h in the series “in vivo” of 45 mg/kg. In addition, the IC50 is 770 nM on β1 (guinea pig atria) (setting [3]), 1200 nM at β1 (guinea pig atria) (setting [4]) and above 10000 nM at β2 (guinea pig trachea) (setting [5]). Besides, the “Vivo inhib. %” value with β1 (setting [8]) came out at 18%.
The like results for `Cc1cccc(OCC(O)CNCCN2C(=O)CN(c3ccc(Cl)cc3)C2=O)c1` (stereo not shown) [Ie] were, in that order, 25 mg/kg, above 10000 nM, above 10000 nM, above 10000 nM and 19%.
The like results for `N#Cc1ccccc1OCC(O)CNCCN1C(=O)CN(c2ccc(Cl)cc2)C1=O` (stereo not shown) [If] were, in that order, 70 mg/kg, 210 nM, 270 nM, 6000 nM and 68%.
In “in vivo”, `COc1ccc(N2CC(=O)N(CCNCC(O)COc3ccccc3)C2=O)cc1OC` (stereo not shown) [Ig] displayed an LD50 at 168 h of 126 mg/kg. Besides, the results for the IC50 at β1 (guinea pig atria) (setting [3]), at β1 (guinea pig atria) (setting [4]) and at β2 (guinea pig trachea) (setting [5]) were 230 nM, 210 nM and 1500 nM, respectively. Besides, the “Vivo inhib. %” value in the series with β1 (setting [8]) is on record as 53%.
`COc1ccc(N2CC(=O)N(CCNCC(O)COc3cccc(C)c3)C2=O)cc1OC` (stereo not shown) [Ih] showed an LD50 at 168 h in “in vivo” of 111 mg/kg. Further, the IC50 was determined as 460 nM at β1 (guinea pig atria) (setting [3]), 890 nM on β1 (guinea pig atria) (setting [4]) and 1100 nM at β2 (guinea pig trachea) (setting [5]). Further, the “Vivo inhib. %” value in the series with β1 (setting [8]) worked out at 58%.
`COc1ccc(N2CC(=O)N(CCNCC(O)COc3ccccc3C#N)C2=O)cc1OC` (stereo not shown) [Ii] gave an LD50 at 168 h in the series “in vivo” of 137 mg/kg. In addition, the IC50 on β1 (guinea pig atria) (setting [3]) amounted to 82 nM; on β1 (guinea pig atria) (setting [4]) it was 190 nM; on β2 (guinea pig trachea) (setting [5]) it was 430 nM; on β1 receptors it was 9.2 nM; on β2 receptors, 400 nM. Further, in the series with β1 (setting [8]), the “Vivo inhib. %” value is reported as 70%. In the series on β1 receptors, the “cardioselectivity degree compared with reference compounds” value is on record as “remarkably higher cardioselectivity degree than that of the reference compounds”. For the same compound, in the series on β2 receptors, the “affinity for the β2 receptors compared with β1 receptors” value was “remarkably lower than the one shown for β1 receptors”.
In the series “in vivo”, `COc1ccc(N2CC(=O)N(CCNCC(O)COc3ccccc3C#N)C2=O)cc1.Cl` (stereo not shown) [Il, 1-(4-Methoxyphenyl)-3-{2-[3-(2-cyanophenoxy)-2-hydroxypropyl]aminoethyl}hydantoin hydrochloride] had an LD50 at 168 h of 135 mg/kg. Further, the half-inhibitory concentration (IC50) on β1 (guinea pig atria) (setting [3]) is 45 nM; at β1 (guinea pig atria) (setting [4]), 96 nM; at β2 (guinea pig trachea) (setting [7]) it was 360 nM.
In the series “in vivo”, `Cl.N#Cc1ccccc1OCC(O)CNCCN1C(=O)CN(c2ccc3c(c2)OCO3)C1=O` (stereo not shown) [Im, 1-(3,4-Methylendioxyphenyl)-3-{2-[3-(2-cyanophenoxy)-2-hydroxypropyl]aminoethyl}hydantoin hydrochloride] registered an LD50 at 168 h of 132 mg/kg. The IC50 came out at 41 nM on β1 (guinea pig atria) (setting [3]), 63 nM at β1 (guinea pig atria) (setting [4]) and 780 nM at β2 (guinea pig trachea) (setting [7]).
For the compound `COc1cccc(N2CC(=O)N(CCNCC(O)COc3ccccc3C#N)C2=O)c1` (stereo not shown) [In, 1-(3-Methoxyphenyl)-3-{2-[3-(2-cyanophenoxy)-2-hydroxypropyl]-aminoethyl}hydantoin hydrochloride], the LD50 at 168 h in “in vivo” came out at 120 mg/kg. Moreover, the results for the IC50 at β1 (guinea pig atria) (setting [3]), on β1 (guinea pig atria) (setting [4]) and at β2 (guinea pig trachea) (setting [5]) were 76 nM, 130 nM and 640 nM, respectively.
The like results for `Cc1ccccc1OCC(O)CNCCN1C(=O)CN(c2ccccc2)C1=O` (stereo not shown) [Io] were, in that order, 60 mg/kg, 115 nM, 150 nM and 1600 nM.
For `O=C1CN(c2ccccc2)C(=O)N1CCNCC(O)COc1ccccc1Cl` (stereo not shown) [Ip], the LD50 at 168 h in the series “in vivo” was 80 mg/kg. For the same compound, the figures for the IC50 on β1 (guinea pig atria) (setting [3]), on β1 (guinea pig atria) (setting [4]) and at β2 (guinea pig trachea) (setting [5]) were 54 nM, 115 nM and 600 nM, respectively.
Take `CC(CCc1ccccc1)NCC(O)c1ccc(O)c(C(N)=O)c1` (stereo not shown) [Labetalol, labetalol, reference compound]: the values for the IC50 against β1 (guinea pig atria) (setting [1]), at β1 (guinea pig atria) (setting [2]) and on β2 (guinea pig trachea) were 240 nM, 210 nM and 1100 nM, respectively. Besides, the “Vivo inhib. %” value in the series on β1 (setting [8]) is reported as 82%.
In turn, `COCCc1ccc(OCC(O)CNC(C)C)cc1` (stereo not shown) [Metoprolol, metoprolol, reference compound] gave an LD50 at 168 h in “in vivo” of 103 mg/kg. Moreover, in the series with β1 (setting [8]), the “Vivo inhib. %” value is 60%.
On to `CC(C)NCC(O)COc1cccc2ccccc12` (stereo not shown) [Propranolol, propranolol, reference compound], for which, in the series with β1 (0.1 mg/kg i.v. (propranolol)), the “Vivo inhib. %” value was found to be 73%.
